“Also recorded” adds a separate entry of the source.
Legend:
CD8^+ T cells = assay type: cell-based, C57BL/6 mice
EL4 cells = assay: Immunization with TSA-pulsed DCs followed by live EL4 cell challenge and rechallenge; assay type: in vivo, C57BL/6 mice; details: for mice with prolonged survival after priming / day-150 survival rate: immunized twice with TSA-pulsed DCs, 5×10^5 live EL4 cells i.v. day 0; for outcome of rechallenge with live EL4 cells at day 150: surviving immunized mice rechallenged at day 150
Method: Generation of bone marrow-derived dendritic cells (DCs), mouse immunization and EL4 cell injection. Bone marrow—derived DCs were generated as previously described^13a,14a. For mouse immunization, DCs from male C57BL/6 mice were pulsed with 2 μM of the selected peptide for 3 hours, then washed. 8- to 12-week old female C57BL/6 mice were injected i.v. with 10^6 individually peptide-pulsed DCs at day −14 and −7, or with irradiated EL4 cells (10,000 cGy). As negative control, C57BL/6 female mice were immunized with unpulsed DCs. At day 0 and day 150, mice were injected i.v. with 5×10^5 EL4 cells and were monitored for weight loss, paralysis, or tumor outgrowth.

[1] = literature references 9, 37; cited from earlier work

Sequence | frequency of antigen-specific CD8 T cells in naive mice (CD8^+ T cells) | day-150 survival rate (EL4 cells) | outcome of rechallenge with live EL4 cells at day 150 (EL4 cells) | also measured
HGIRNASFI (listed as Murine cytomegalovirus) [M45, H-2db, reference compound] | within range of those observed in previous studies | – | – | –
IILEFHSL (listed as Mus musculus) [EL4 TSA] | less than one | – | – | mice with prolonged survival after priming (EL4 cells): 10%
KAVYNFATC [gp-33, reference compound] | within range of those observed in previous studies | – | – | –
SPSYVYHQF (listed as Mus musculus) [AH1 peptide, aeTSA previously identified on CT26 cells] | – | – | – | antitumor responses and adverse effects [1]: elicits strong antitumor responses devoid of adverse effects
TSYKFESV [B8R, reference compound] | within range of those observed in previous studies | – | – | –
TVPLNHNTL (listed as Mus musculus) [EL4 TSA] | less than one | surviving up day 150 | survived the rechallenge | mice with prolonged survival after priming (EL4 cells): 10%
VNYIHRNV (VNYXHRNV; VARIANT (4)..(4) Xaa is Ile or Leu; listed as Mus musculus) | frequencies similar to those of the viral controls | 20% | not sufficient to protect mice upon rechallenge; also recorded: no significant protection upon rechallenge | time to death from leukemia after rechallenge (EL4 cells; surviving immunized mice rechallenged with EL4 cells at day 150): ≤ 50 days; tetramer^+ CD8 T cells in long-term survivors after rechallenge (CD8^+ T cells): large population of tetramer^+ cells
VNYLHRNV (VNYXHRNV; VARIANT (4)..(4) Xaa is Ile or Leu; listed as Mus musculus) | frequencies similar to those of the viral controls | 100% | survived the rechallenge | rank of protection against EL4 challenge (EL4 cells; immunization with TSA-pulsed DCs): best protection

Reference: patent US11702450B2, “Proteogenomic-based method for identifying tumor-specific antigens” (UNIVERSITÉ DE MONTRÉAL, priority 2018, dated 2023)
